Experimental data: patent US8580802B2, “Pyrrolo[2,3-D]pyrimidines as inhibitors of Janus kinases” (Vertex Pharmaceuticals Incorporated, priority 2005, dated 2013)

What was measured:
[1] = molecular target: T1, JAK3 (Homo sapiens, UniProt P52333); test: JAK3 Inhibition Assay; type: biochemical; settings: 1 nM JAK3, 1 μM poly(Glu)4Tyr, 5 μM ATP, 25° C.; read-out: enzyme inhibition data (Ki) JAK3
T1 sequence (P52333 1-1124): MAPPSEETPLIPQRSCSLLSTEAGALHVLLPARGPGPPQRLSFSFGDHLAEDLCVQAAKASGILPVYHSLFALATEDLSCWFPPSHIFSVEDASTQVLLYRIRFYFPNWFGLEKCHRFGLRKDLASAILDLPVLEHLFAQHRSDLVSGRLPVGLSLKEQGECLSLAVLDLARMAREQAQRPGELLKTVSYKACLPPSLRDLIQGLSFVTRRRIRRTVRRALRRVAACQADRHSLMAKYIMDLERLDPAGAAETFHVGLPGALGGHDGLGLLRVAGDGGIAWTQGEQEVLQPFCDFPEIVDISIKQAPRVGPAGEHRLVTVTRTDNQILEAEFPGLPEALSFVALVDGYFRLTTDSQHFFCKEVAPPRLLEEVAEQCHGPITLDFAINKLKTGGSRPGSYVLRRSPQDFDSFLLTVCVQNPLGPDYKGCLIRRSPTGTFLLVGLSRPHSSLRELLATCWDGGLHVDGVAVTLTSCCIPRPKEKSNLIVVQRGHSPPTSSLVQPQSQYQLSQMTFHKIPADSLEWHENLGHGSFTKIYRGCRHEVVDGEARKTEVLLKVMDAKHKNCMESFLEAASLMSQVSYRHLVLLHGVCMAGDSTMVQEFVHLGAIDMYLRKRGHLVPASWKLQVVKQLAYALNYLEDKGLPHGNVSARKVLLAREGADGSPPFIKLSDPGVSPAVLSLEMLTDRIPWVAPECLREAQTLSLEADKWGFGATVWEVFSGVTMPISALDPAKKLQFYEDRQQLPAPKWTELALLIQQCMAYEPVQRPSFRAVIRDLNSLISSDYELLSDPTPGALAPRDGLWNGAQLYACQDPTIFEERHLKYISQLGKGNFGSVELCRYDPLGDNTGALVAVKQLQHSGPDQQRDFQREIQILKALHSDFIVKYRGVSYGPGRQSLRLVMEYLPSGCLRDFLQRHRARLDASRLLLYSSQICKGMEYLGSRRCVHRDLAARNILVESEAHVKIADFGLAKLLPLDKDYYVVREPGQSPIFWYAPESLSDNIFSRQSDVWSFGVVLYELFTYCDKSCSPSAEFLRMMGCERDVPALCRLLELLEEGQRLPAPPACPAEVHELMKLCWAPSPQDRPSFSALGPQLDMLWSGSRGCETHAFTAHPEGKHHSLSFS
Description: (§1) Compounds were screened for their ability to inhibit JAK3 using the assay shown below. Reactions were carried out in a kinase buffer containing 100 mM HEPES (pH 7.4), 1 mM DTT, 10 mM MgCl2, 25 mM NaCl, and 0.01% BSA. Substrate concentrations in the assay were 5 μM ATP (200 uCi/μmole ATP) and 1 μM poly(Glu)4Tyr. Reactions were carried out 25° C. and 1 nM JAK3.
(§2) To each well of a 96 well polycarbonate plate was added 1.5 μl of a candidate JAK3 inhibitor along with 50 μl of kinase buffer containing 2 μM poly(Glu)4Tyr and 10 μM ATP. This was then mixed and 50 μl of kinase buffer containing 2 nM JAK3 enzyme was added to start the reaction. After 20 minutes at room temperature (25° C.), the reaction was stopped with 50 μl of 20% trichloroacetic acid (TCA) that also contained 0.4 mM ATP. The entire contents of each well were then transferred to a 96 well glass fiber filter plate using a TomTek Cell Harvester. After washing, 60 μl of scintillation fluid was added and ^33P incorporation detected on a Perkin Elmer TopCount.

[2] = molecular target: JAK2 (Homo sapiens, UniProt O60674); test: JAK2 Inhibition Assay; type: biochemical; settings: JAK-2 enzyme, 15 μM poly(Glu)4Tyr, 12 μM ATP
JAK2, sequence (O60674 whole entry): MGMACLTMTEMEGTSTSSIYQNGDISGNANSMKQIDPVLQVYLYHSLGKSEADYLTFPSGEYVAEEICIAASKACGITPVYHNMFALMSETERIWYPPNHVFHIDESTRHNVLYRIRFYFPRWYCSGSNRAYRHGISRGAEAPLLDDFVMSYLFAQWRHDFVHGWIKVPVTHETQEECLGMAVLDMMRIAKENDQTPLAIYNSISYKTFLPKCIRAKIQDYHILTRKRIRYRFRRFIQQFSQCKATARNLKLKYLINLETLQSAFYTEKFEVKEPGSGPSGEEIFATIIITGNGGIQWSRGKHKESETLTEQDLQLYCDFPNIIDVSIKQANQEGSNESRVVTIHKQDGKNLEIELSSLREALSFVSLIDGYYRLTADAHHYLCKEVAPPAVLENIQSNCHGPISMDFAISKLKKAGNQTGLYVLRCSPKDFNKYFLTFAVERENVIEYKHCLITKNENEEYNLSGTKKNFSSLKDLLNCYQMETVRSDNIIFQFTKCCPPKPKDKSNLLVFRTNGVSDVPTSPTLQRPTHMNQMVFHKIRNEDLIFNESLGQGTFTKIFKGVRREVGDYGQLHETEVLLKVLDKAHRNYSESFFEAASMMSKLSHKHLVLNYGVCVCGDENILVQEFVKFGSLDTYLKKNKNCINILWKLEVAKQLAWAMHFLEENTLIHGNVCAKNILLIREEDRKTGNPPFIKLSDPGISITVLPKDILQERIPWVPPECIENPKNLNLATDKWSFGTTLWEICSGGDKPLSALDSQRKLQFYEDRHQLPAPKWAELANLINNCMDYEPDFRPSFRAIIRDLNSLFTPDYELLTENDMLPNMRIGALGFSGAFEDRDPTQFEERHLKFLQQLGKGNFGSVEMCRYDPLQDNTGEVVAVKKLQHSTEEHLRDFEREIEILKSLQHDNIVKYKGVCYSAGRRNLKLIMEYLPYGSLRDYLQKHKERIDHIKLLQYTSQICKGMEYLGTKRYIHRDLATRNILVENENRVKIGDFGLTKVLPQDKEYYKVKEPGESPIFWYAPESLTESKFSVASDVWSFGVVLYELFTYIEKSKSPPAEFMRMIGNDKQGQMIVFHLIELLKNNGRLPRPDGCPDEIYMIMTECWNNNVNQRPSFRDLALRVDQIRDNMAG
Description: as §1, §2
The assays were as described above in Example 36 except that JAK-2 enzyme was used, the final poly(Glu)4Tyr concentration was 15 μM, and final ATP concentration was 12 μM.

Row | Structure (SMILES) | Ki [1] [nM] | Ki [2] [nM]
1 | CCOC(=O)c1cc(N[C@@H](C)C(=O)NCC(F)(F)F)nc(-c2c[nH]c3ncncc23)n1 [Compound 2] | 500 to 5000 | > 5000
2 | C[C@H](Nc1nc(-c2c[nH]c3ncncc23)ccc1[N+](=O)[O-])C(=O)NCC(F)(F)F [Compound 46] | < 500 | 500 to 5000
3 | COCCNC(=O)c1cc(N[C@@H](C)C(=O)NCC(F)(F)F)nc(-c2c[nH]c3ncncc23)n1 [Compound 14] | < 500 | 500 to 5000
4 | O=C(CCNc1nc(-c2c[nH]c3ncncc23)ncc1F)NCC(F)(F)F [Compound 71] | < 500 | < 500
5 | CC(C)(C(=O)NCC(F)(F)F)n1cnc2cnc(-c3c[nH]c4ncncc34)nc21 [Compound 108, 2-(2-(7H-pyrrolo[2,3-d]pyrimidin-5-yl)-9H-purin-9-yl)-N-(2,2,2-trifluoroethyl)-2-methylpropanamide] | < 500 | < 500
6 | C[C@@H](Nc1ccnc(-c2c[nH]c3ncncc23)n1)c1ccc(F)cc1 [Compound 83] | < 500 | < 500
7 | CC(C)C(C(=O)NCC(F)(F)F)N(C)c1nc(-c2c[nH]c3ncncc23)ncc1F (stereo not shown) [Compound 66] | < 500 | < 500
8 | C[C@H](Nc1cc(C(=O)N(C)CCO)nc(-c2c[nH]c3ncncc23)n1)C(=O)NCC(F)(F)F [Compound 15] | 500 to 5000 | 500 to 5000
9 | CC(C)[C@H](C)NC(=O)c1cc(N[C@@H](C)C(=O)NCC(F)(F)F)nc(-c2c[nH]c3ncncc23)n1 [Compound 16] | 500 to 5000 | 500 to 5000
10 | CN(c1nc(-c2c[nH]c3ncncc23)ncc1F)C(C(=O)NCC(F)(F)F)c1ccccc1 (stereo not shown) [Compound 100] | < 500 | 500 to 5000
11 | O=C(NCC(F)(F)F)C1(Nc2nc(-c3c[nH]c4ncncc34)ncc2F)CC1 [Compound 57] | < 500 | < 500
12 | Fc1cnc(-c2c[nH]c3ncncc23)nc1N1CCCC1 [Compound 24, 5-(5-fluoro-4-(pyrrolidin-1-yl)pyrimidin-2-yl)-7H-pyrrolo[2,3-d]pyrimidine] | 500 to 5000 | 500 to 5000
13 | CC[C@@H](Nc1ncnc(-c2c[nH]c3ncncc23)n1)C(=O)NCC(F)(F)F [Compound 91] | < 500 | < 500
14 | O=C(NCC(F)(F)F)C1(Nc2ccnc(-c3c[nH]c4ncncc34)n2)CCOC1 (stereo not shown) [Compound 101] | < 500 | < 500
15 | C[C@@H](Nc1nc(-c2c[nH]c3ncncc23)ncc1F)c1ccc(F)cc1 [Compound 58] | < 500 | < 500
16 | C[C@H](Nc1cc(C(=O)O)nc(-c2c[nH]c3ncncc23)n1)C(=O)NCC(F)(F)F [Compound 3, 6-((S)-1-(2,2,2-trifluoroethylcarbamoyl)ethylamino)-2-(7H-pyrrolo[2,3-d]pyrimidin-5-yl)pyrimidine-4-carboxylic acid] | < 500 | > 5000
17 | C[C@H](Nc1cc(N2CCOCC2)nc(-c2c[nH]c3ncncc23)n1)C(=O)NCC(F)(F)F [Compound 36, (S)-2-(6-morpholino-2-(7H-pyrrolo[2,3-d]pyrimidin-5-yl)pyrimidin-4-ylamino)-N-(2,2,2-trifluoroethyl)propanamide] | > 5000 | > 5000
18 | O=C(NCC(F)(F)F)[C@H]1CCCN1c1ccnc(-c2c[nH]c3ncncc23)n1 [Compound 72] | < 500 | < 500
19 | O=C(NCC(F)(F)F)[C@@H]1CCCCN1c1ccnc(-c2c[nH]c3ncncc23)n1 [Compound 61] | < 500 | 500 to 5000

Row | Structure (SMILES) | Ki [1] [nM] | Ki [2] [nM]
20 | C[C@H](Nc1cc(-c2nnn[nH]2)cc(-c2c[nH]c3ncncc23)n1)C(=O)NCC(F)(F)F [Compound 20, (S)-2-(6-(7H-pyrrolo[2,3-d]pyrimidin-5-yl)-4-(1H-tetrazol-5-yl)pyridin-2-ylamino)-N-(2,2,2-trifluoroethyl)propanamide] | < 500 | 500 to 5000
21 | CC(C)[C@@H](Nc1ccnc(-c2c[nH]c3ncncc23)n1)C(=O)NCC(F)(F)F [Compound 68] | < 500 | < 500
22 | C[C@@H](c1ccccc1)N(C)c1ccnc(-c2c[nH]c3ncncc23)n1 [Compound 86] | < 500 | 500 to 5000
23 | C[C@@H](Nc1ncnc(-c2c[nH]c3ncncc23)n1)C(=O)NCC(F)(F)F [Compound 78, (R)-2-(4-(7H-pyrrolo[2,3-d]pyrimidin-5-yl)-1,3,5-triazin-2-ylamino)-N-(2,2,2-trifluoroethyl)propanamide] | < 500 | 500 to 5000
24 | COC[C@@H]1CCCN1c1nc(-c2c[nH]c3ncncc23)ncc1F [Compound 23, 5-(5-fluoro-4-((S)-2-(methoxymethyl)pyrrolidin-1-yl)pyrimidin-2-yl)-7H-pyrrolo[2,3-d]pyrimidine] | 500 to 5000 | 500 to 5000
25 | O=C(NCC(F)(F)F)C(CC(F)(F)F)Nc1nc(-c2c[nH]c3ncncc23)ncc1F (stereo not shown) [Compound 45, 2-(5-fluoro-2-(7H-pyrrolo[2,3-d]pyrimidin-5-yl)pyrimidin-4-ylamino)-4,4,4-trifluoro-N-(2,2,2-trifluoroethyl)butanamide] | < 500 | < 500
26 | C[C@H](Nc1cc(C(=O)N(C)Cc2ccccc2)nc(-c2c[nH]c3ncncc23)n1)C(=O)NCC(F)(F)F [Compound 17] | 500 to 5000 | 500 to 5000
27 | C[C@H](Nc1cc(C(=O)N2CCCC2)nc(-c2c[nH]c3ncncc23)n1)C(=O)NCC(F)(F)F [Compound 9] | < 500 | 500 to 5000
28 | COC[C@H]1CCCN1c1nc(-c2c[nH]c3ncncc23)ncc1F [Compound 25, 5-(5-fluoro-4-((R)-2-(methoxymethyl)pyrrolidin-1-yl)pyrimidin-2-yl)-7H-pyrrolo[2,3-d]pyrimidine] | 500 to 5000 | 500 to 5000
29 | O=C(NCC(F)(F)F)[C@@H]1C[C@H](F)CN1c1nc(-c2c[nH]c3ncncc23)ncc1F [Compound 52] | 500 to 5000 | 500 to 5000
30 | C[C@H](Nc1cc(C(=O)N2CCC[C@H]2CO)nc(-c2c[nH]c3ncncc23)n1)C(=O)NCC(F)(F)F [Compound 8] | < 500 | 500 to 5000
31 | C[C@H](Nc1cccc(-c2c[nH]c3ncncc23)n1)C(=O)NCC(F)(F)F [Compound 4, (S)-2-(6-(7H-pyrrolo[2,3-d]pyrimidin-5-yl)pyridin-2-ylamino)-N-(2,2,2-trifluoroethyl)propanamide] | < 500 | < 500
32 | CC[C@@](C)(Nc1ccnc(-c2c[nH]c3ncncc23)n1)C(=O)NCC(F)(F)F [Compound 80] | < 500 | < 500
33 | C[C@@H](Nc1nc(-c2c[nH]c3ncncc23)ncc1F)C(=O)N(C)CC(F)(F)F [Compound 104] | < 500 | 500 to 5000
34 | CC[C@@H](C(=O)NCC(F)(F)F)n1ccc2cnc(-c3c[nH]c4ncncc34)nc21 [Compound 112] | < 500 | < 500
35 | C[C@H](Nc1nc(-c2c[nH]c3ncncc23)ncc1F)C(=O)NCC(F)(F)F [Compound 6, (S)-2-(5-fluoro-2-(7H-pyrrolo[2,3-d]pyrimidin-5-yl)pyrimidin-4-ylamino)-N-(2,2,2-trifluoroethyl)propanamide] | < 500 | < 500
36 | O=C(NCC(F)(F)F)C1COCCN1c1cnc(-c2c[nH]c3ncncc23)nc1 (stereo not shown) [Compound 60] | < 500 | 500 to 5000
37 | C[C@H](Nc1nc(-c2c[nH]c3ncncc23)ncc1F)c1ccc(F)cc1 [Compound 59] | < 500 | < 500
38 | COC[C@H](Nc1nc(-c2c[nH]c3ncncc23)nc2ccccc12)C(=O)NCC(F)(F)F [Compound 47] | 500 to 5000 | > 5000
